# Tests used:
# MDA-MB-435 = test: NCI growth inhibition and cytotoxicity screen, Melanoma panel; conditions: Homo sapiens; for GI50: MDA-MB-435; for CC50: MDA-MB-435, read-out: LC50
# HT29 = test: NCI growth inhibition and cytotoxicity screen, Colon Cancer panel; conditions: Homo sapiens; for GI50: HT-29; for CC50: HT-29, read-out: LC50
# SK-MEL-2 = test: NCI growth inhibition and cytotoxicity screen, Melanoma panel; conditions: Homo sapiens; for GI50: SK-MEL-2; for CC50: SK-MEL-2, read-out: LC50
# UO-31 = test: NCI growth inhibition and cytotoxicity screen, Renal Cancer panel; conditions: Homo sapiens; for GI50: UO-31; for CC50: UO-31, read-out: LC50
# NCI/ADR-RES = test: NCI growth inhibition and cytotoxicity screen, Ovarian Cancer panel; conditions: Homo sapiens; for CC50: read-out: LC50
# IGROV1 = test: as above; conditions: Homo sapiens; for GI50: IGROV-1; for CC50: IGROV-1, read-out: LC50
# KM12 = test: NCI growth inhibition and cytotoxicity screen, Colon Cancer panel; conditions: Homo sapiens; for GI50: KM12; for CC50: KM12, read-out: LC50
# MDA-MB-231/ATCC = test: NCI growth inhibition and cytotoxicity screen, Breast Cancer panel; conditions: Homo sapiens; for GI50: MDA-MB-231; for CC50: MDA-MB-231, read-out: LC50
# 786-0 = test: NCI growth inhibition and cytotoxicity screen, Renal Cancer panel; conditions: Homo sapiens; for GI50: 786-0; for CC50: 786-0, read-out: LC50
# CCRF-CEM = test: NCI growth inhibition and cytotoxicity screen, Leukemia panel; conditions: Homo sapiens; for CC50: read-out: LC50
# MALME-3M = test: NCI growth inhibition and cytotoxicity screen, Melanoma panel; conditions: Homo sapiens; for CC50: read-out: LC50
# OVCAR-3 = test: cells; conditions: Homo sapiens; for GI50: OVCAR-3; for CC50: OVCAR-3, read-out: LC50
# NCI-H322M = test: NCI growth inhibition and cytotoxicity screen, Lung Cancer panel; conditions: Homo sapiens; for CC50: read-out: LC50
# K-562 = test: NCI growth inhibition and cytotoxicity screen, Leukemia panel; conditions: Homo sapiens; for CC50: K562, read-out: LC50
# HL-60(TB) = test: cells; conditions: Homo sapiens; for GI50: HL-60; for CC50: HL-60, read-out: LC50
# SF-539 = test: NCI growth inhibition and cytotoxicity screen, CNS Cancer panel; conditions: Homo sapiens; for GI50: SF-539; for CC50: SF-539, read-out: LC50
# A498 = test: NCI growth inhibition and cytotoxicity screen, Renal Cancer panel; conditions: Homo sapiens; for GI50: A498; for CC50: A498, read-out: LC50
# ACHN = test: as above; conditions: Homo sapiens; for CC50: read-out: LC50
# T-47D = test: NCI growth inhibition and cytotoxicity screen, Breast Cancer panel; conditions: Homo sapiens, T47D; for CC50: read-out: LC50
# CAKI-1 = test: NCI growth inhibition and cytotoxicity screen, Renal Cancer panel; conditions: Homo sapiens; for GI50: CAKI-1; for CC50: CAKI-1, read-out: LC50
# NCI-H226 = test: NCI growth inhibition and cytotoxicity screen, Lung Cancer panel; conditions: Homo sapiens; for GI50: NCI-H226; for CC50: NCI-H226, read-out: LC50
# RPMI-8226 = test: NCI growth inhibition and cytotoxicity screen, Leukemia panel; conditions: Homo sapiens; for GI50: RPMI-8226; for CC50: RPMI-8226, read-out: LC50
# BT-549 = test: NCI growth inhibition and cytotoxicity screen, Breast Cancer panel; conditions: Homo sapiens; for GI50: BT-549; for CC50: BT-549, read-out: LC50
# SK-MEL-28 = test: NCI growth inhibition and cytotoxicity screen, Melanoma panel; conditions: Homo sapiens; for GI50: SK-MEL-28; for CC50: SK-MEL-28, read-out: LC50
# OVCAR-5 = test: NCI growth inhibition and cytotoxicity screen, Ovarian Cancer panel; conditions: Homo sapiens; for GI50: OVCAR-5; for CC50: OVCAR-5, read-out: LC50
# SF-295 = test: NCI growth inhibition and cytotoxicity screen, CNS Cancer panel; type: cell-based; conditions: Homo sapiens, SF-295, Table 1, cell line SF-2395 (CNS Cancer); for CC50: read-out: LC50 (the source's name)
# NCI-H23 = test: NCI growth inhibition and cytotoxicity screen, Lung Cancer panel; conditions: Homo sapiens; for GI50: NCI-H23; for CC50: NCI-H23, read-out: LC50
# MOLT-4 = test: NCI growth inhibition and cytotoxicity screen, Leukemia panel; conditions: Homo sapiens; for GI50: MOLT-4; for CC50: MOLT-4, read-out: LC50
# TK-10 = test: NCI growth inhibition and cytotoxicity screen, Renal Cancer panel; conditions: Homo sapiens; for GI50: TK-10; for CC50: TK-10, read-out: LC50
# LOX-IMVI = test: NCI growth inhibition and cytotoxicity screen, Melanoma panel; conditions: Homo sapiens; for CC50: read-out: LC50
# MCF7 = test: NCI growth inhibition and cytotoxicity screen, Breast Cancer panel; conditions: Homo sapiens; for GI50: MCF7; for CC50: MCF7, read-out: LC50
# COLO 205 = test: NCI growth inhibition and cytotoxicity screen, Colon Cancer panel; conditions: Homo sapiens; for GI50: COLO 205; for CC50: COLO 205, read-out: LC50
smiles,measurement,setting,value
COc1cc(OC)cc(/C(C#N)=C/c2c[nH]c3ccccc23)c1 [Formula (I)(b)],GI50,MDA-MB-435,20.3 nM
same,CC50,MDA-MB-435,> 100000 nM
same,GI50,HT29,38.4 nM
same,CC50,HT29,> 100000 nM
same,GI50,SK-MEL-2,51.2 nM
same,CC50,SK-MEL-2,> 100000 nM
same,GI50,UO-31,> 100 nM
same,CC50,UO-31,> 100000 nM
same,GI50,NCI/ADR-RES,33.3 nM
same,CC50,NCI/ADR-RES,> 100000 nM
same,GI50,IGROV1,> 100 nM
same,CC50,IGROV1,> 100000 nM
same,GI50,KM12,40.9 nM
same,CC50,KM12,> 100000 nM
same,GI50,MDA-MB-231/ATCC,> 100 nM
same,CC50,MDA-MB-231/ATCC,> 100000 nM
same,GI50,786-0,77.3 nM
same,CC50,786-0,> 100000 nM
same,GI50,CCRF-CEM,42.4 nM
same,CC50,CCRF-CEM,> 100000 nM
same,CC50,MALME-3M,> 100000 nM
same,GI50,OVCAR-3,31.2 nM
same,CC50,OVCAR-3,> 100000 nM
same,CC50,NCI-H322M,> 100000 nM
same,GI50,K-562; K562,43.2 nM
same,CC50,K-562,> 100000 nM
same,GI50,HL-60(TB),31.2 nM
same,CC50,HL-60(TB),> 100000 nM
same,GI50,SF-539,52.2 nM
same,CC50,SF-539,90200 nM
same,GI50,A498,35.3 nM
same,CC50,A498,> 100000 nM
same,GI50,ACHN,> 100 nM
same,CC50,ACHN,> 100000 nM
same,GI50,T-47D,> 100 nM
same,CC50,T-47D,> 100000 nM
same,GI50,CAKI-1,35 nM
same,CC50,CAKI-1,> 100000 nM
same,GI50,NCI-H226,> 100 nM
same,CC50,NCI-H226,> 100000 nM
same,GI50,RPMI-8226,65.5 nM
same,CC50,RPMI-8226,> 100000 nM
same,GI50,BT-549,> 100 nM
same,CC50,BT-549,> 100000 nM
same,GI50,SK-MEL-28,81.1 nM
same,CC50,SK-MEL-28,> 100000 nM
same,GI50,OVCAR-5,> 100 nM
same,CC50,OVCAR-5,> 100000 nM
same,GI50,SF-295,45.3 nM
same,CC50,SF-295,> 100000 nM
same,GI50,NCI-H23,> 100 nM
same,CC50,NCI-H23,> 100000 nM
same,GI50,MOLT-4,49.1 nM
same,CC50,MOLT-4,> 100000 nM
same,GI50,TK-10,> 100 nM
same,CC50,TK-10,> 100000 nM
same,GI50,LOX-IMVI,78.4 nM
same,CC50,LOX-IMVI,> 100000 nM
same,GI50,MCF7,41.4 nM
same,CC50,MCF7,> 100000 nM
same,GI50,COLO 205,47.7 nM
same,CC50,COLO 205,15200 nM
COc1cc(/C=C/c2cc3ccccc3o2)cc(OC)c1OC [Formula (I)(c)],GI50,MDA-MB-435,0.078 nM
same,CC50,MDA-MB-435,> 100000 nM
same,GI50,HT29,0.37 nM
same,CC50,HT29,> 100000 nM
same,GI50,SK-MEL-2,0.76 nM
same,CC50,SK-MEL-2,> 100000 nM
same,GI50,UO-31,1.15 nM
same,CC50,UO-31,> 100000 nM
same,GI50,NCI/ADR-RES,0.51 nM
same,CC50,NCI/ADR-RES,> 100000 nM
same,GI50,IGROV1,0.8 nM
same,CC50,IGROV1,> 100000 nM
same,GI50,KM12,0.5 nM
same,CC50,KM12,> 100000 nM
same,GI50,MDA-MB-231/ATCC,1.17 nM
same,CC50,MDA-MB-231/ATCC,> 100000 nM
same,GI50,786-0,0.85 nM
same,CC50,786-0,79800 nM
same,GI50,CCRF-CEM,0.42 nM
same,CC50,CCRF-CEM,> 100000 nM
same,GI50,MALME-3M,0.41 nM
same,CC50,MALME-3M,86300 nM
same,GI50,OVCAR-3,0.42 nM
same,CC50,OVCAR-3,48100 nM
same,GI50,NCI-H322M,15.9 nM
same,CC50,NCI-H322M,> 100000 nM
same,CC50,K-562,> 100000 nM
same,GI50,HL-60(TB),0.35 nM
same,CC50,HL-60(TB),> 100000 nM
same,GI50,SF-539,0.27 nM
same,CC50,SF-539,> 100000 nM
same,GI50,A498,0.4 nM
same,CC50,A498,48400 nM
same,GI50,ACHN,0.86 nM
same,CC50,ACHN,> 100000 nM
same,GI50,T-47D,0.69 nM
same,CC50,T-47D,> 100000 nM
same,GI50,CAKI-1,0.58 nM
same,CC50,CAKI-1,> 100000 nM
same,GI50,NCI-H226,1.1 nM
same,CC50,NCI-H226,> 100000 nM
same,GI50,RPMI-8226,0.7 nM
same,CC50,RPMI-8226,> 100000 nM
same,GI50,BT-549,1.09 nM
same,CC50,BT-549,79500 nM
same,GI50,SK-MEL-28,0.83 nM
same,CC50,SK-MEL-28,> 100000 nM
same,GI50,OVCAR-5,2.94 nM
same,CC50,OVCAR-5,> 100000 nM
same,GI50,SF-295,0.35 nM
same,CC50,SF-295,> 100000 nM
same,GI50,NCI-H23,3.09 nM
same,CC50,NCI-H23,> 100000 nM
same,GI50,MOLT-4,0.85 nM
same,CC50,MOLT-4,> 100000 nM
same,GI50,TK-10,8.4 nM
same,CC50,TK-10,> 100000 nM
same,GI50,LOX-IMVI,0.89 nM
same,CC50,LOX-IMVI,60400 nM
same,GI50,MCF7,0.37 nM
same,CC50,MCF7,> 100000 nM
same,GI50,COLO 205,0.4 nM
same,CC50,COLO 205,19500 nM

# From patent publication US9884842B2, “Combretastatin analogs” (The Board of Trustees of the University of Arkansas, priority 2013, dated 2018)
